The subject of assay [1] is HK-2 cells. Kind of assay: Cell viability against ROS (200 μM hydrogen peroxide), Alamar Blue. It is filed as cell-based, human. The method, then:
HK-2 cells were treated with 200 μM hydrogen peroxide and various concentrations of the biopolymer-hemin complexes. After 24 hours of incubation, cell viability was evaluated using the Alamar Blue assay.
It was confirmed that the biopolymer-hemin complex removes ROS such as hydrogen peroxide and protects cells from oxidative stress (FIG. 4D). The ROS protective effect of the biopolymer-hemin complex was assayed in HK-2 cells with hydrogen peroxide. Various concentrations of hemin and biopolymer-hemin complexes with the same amount of hemin were added to cells treated with hydrogen peroxide (200 μM). The survival rate of cells was improved by increasing the concentration of the biopolymer-hemin complex or hemin.

Assay [2] concerns AKI mouse model established using glycerol. Kind of assay: Serum analysis (BUN, creatinine) of AKI mice. Conditions: 10 mg/kg intravenous, 24 hours, compared to AKI mice. It is filed as in vivo, ICR mice. The method, then: (§1) All animal experiments were performed in accordance with the Gwangju Institute of Science and Technology Animal Care Committee guidelines (GIST-2021-095). Six-week-old ICR mice (30 g) were used, with free access to food and water. To establish an acute kidney injury (AKI) model, water was restricted for 18 hours. Next, 50% glycerol solution (8 mL/kg) was injected intramuscularly into both hind limbs of each mouse.
(§2) After establishing the AKI model, 10 mg/kg of hemin and biopolymer-hemin complex was injected intravenously. Twenty-four hours later, blood was collected for serum urea nitrogen (BUN) and creatinine analysis. Kidneys and other major organs (heart, liver, spleen, and lungs) were also collected for further histological analysis. 1-10. Histological analysis

Assay [3] has the same test system. As to the kind of experiment: Histological analysis of kidneys of AKI mice (H&E, DHE, KIM-1, MAC387). It is filed as in vivo, ICR mice. Here is the method:
as §1, §2
The kidneys of each group were fixed with 4% formaldehyde, embedded in paraffin, and cut into 5 μm thick sections. H&E staining and TUNEL analysis of kidney sections were performed according to the manufacturer's protocol. For immunostaining of kidney injury molecule-1 (KIM-1) and MAC387, sections were treated with 100-fold diluted KIM-1 and MAC primary antibodies, and 200-fold diluted anti-rabbit IgG (Alexa Fluor 594) and anti-mouse IgG (Alexa Fluor 488) were each used as a secondary antibody. […] Images were analyzed quantitatively using ImageJ software. […]

Consider Hemin, for which, in assay [1] (HK-2, 200 μM hydrogen peroxide), the “cytoprotective effect against hydrogen peroxide, overall” value was “no significant difference observed between CS-H and hemin”. For the same substance, the “cell viability against hydrogen peroxide” value in assay [1] (hemin concentration 1 μM, 200 μM hydrogen peroxide) is reported as “no protective effect at all”. Also, in assay [1] (hemin concentration 5 and 25 μM, 200 μM hydrogen peroxide), the “protective effect against hydrogen peroxide” value is on record as “improved protective effects”. In addition, in assay [2], the “serum BUN level” value is reported as “did not induce significant changes” and the serum creatinine level result is given as “did not induce significant changes”. Also, in assay [3] (AKI mice (FIG. 6D, 6F)), the “kidney ROS levels (DHE staining)” value is on record as “not effective in reducing ROS levels”. The “macrophage signal (MAC387 immunostaining)” value in assay [3] (AKI mice kidney) is listed as “strong macrophage signals”.

Values taken from US20260224738A1, “MICELLE NANOPARTICLES COMPRISING BIOPOLYMER-HEMIN COMPLEX, AND USE THEREOF” (GWANGJU INSTITUTE OF SCIENCE AND TECHNOLOGY, priority 2023, published 2026).
